From patent US20040192686A1, “Benzoazine mono-N-oxides and benzoazine 1,4 dioxides and compositions therefrom for the therapeutic use in cancer treatments” (Auckland Uniservices Limited, priority 2003, published 2004)
In brackets after ≈: the same amount, converted by molar mass. Like-named read-outs stand apart in the source and are kept apart here.

Columns and labels:
HT29 cells [1] = assay: TPZ potentiation test: IC50 of TPZ with and without potentiator, anoxic HT29 cells; assay type: cell-based, human; conditions: 4 hr anoxic exposure of HT29 cells
[2] = Approximate solubility limit in Alpha MEM culture medium containing 5% fetal calf serum; assay type: physicochemical; conditions: plasma or biological fluid, kinetic from dmso stock, dilution from DMSO stock solutions
Solubility of SR 4317 = assay type: physicochemical
HT29 cells [3] = assay: Radiosensitisation of anoxic HT29 cells; assay type: cell-based, human; conditions: 0.6 mM of each agent; anoxic HT29 cells irradiated 5 min after drug addition
Procedure: Anoxic cell suspensions were irradiated 5 min after addition of pre-equilibrated anoxic drug solutions. Data are shown for duplicate determinations, and are fitted using a linear-quadratic model

[4] = tested on: hypoxic (radioresistant) cells in HT29 tumours; assay: HT29 tumour xenograft excision assay: clonogenic survivors 18 hr after radiation and drug; assay type: in vivo, mice
Procedure: Animals with subcutaneous tumours (ca 300 mg) received whole body radiation (RAD; 20 Gy) to sterilise oxygenated tumour cells. Activity of drugs against the hypoxic survivors was determined by intraperitoneal administration of solutions in 5% DMSO/saline 5 min after radiation, using TPZ alone (133 μmol/kg) or in combination with SR 4317 (1000 μmol/kg). Tumours were excised 18 hr after treatment, dissociated enzymatically, and plated to determine the number of clonogenic survivors. Values are geometric means and error bars are standard errors of the mean. Horizontal lines show historical values for untreated controls and radiation only (solid lines are means, dashed lines are 95% confidence limits. p values were determined by one-way ANOVA using only data within this experiment.
The utility of SR 4317 as a potentiator of the hypoxic cytotoxicity of TPZ was assessed in an in vivo model (HT29 tumour xenografts) as illustrated in FIG. 7. In this experiment tumour response was determined by excising tumours 18 hr after treatment and quantifying the number of clonogenic survivors by plating in vitro. TPZ was administered at a sub-efficacious dose (0.133 mmol/kg), 5 minutes after whole body radiation (20 Gy). […] No significant cytotoxicity was observed when the two compounds were administered in the absence of irradiation, indicating lack of activity against aerobic cells in tumours (FIG. 7).

[5] = tested on: HT29 colon carcinoma cells; assay: IC50 assay of potentiator alone, HT29 cells, 4 hr anoxic exposure, sulphorhodamine B staining; assay type: cell-based, human; conditions: Homo sapiens, HT-29, 4 hr exposure under anoxic conditions, cell density by sulphorhodamine B five days after washing out
[6] = Plasma pharmacokinetics after intraperitoneal administration; assay type: in vivo, CD-1 mice
Procedure: The plasma pharrmacokinetics of SR 4317 and TPZ were determined in C3H mice, alone and in combination (FIG. 6), to assess whether therapeutic concentrations of SR 4317 can be achieved in mice.

HT-29 MCLs = assay type: in vitro ADME, human
Procedure: Compounds are added to the donor compartment, along with ^14C-urea as an internal standard, and diffusion into the receiver compartment is monitored by HPLC and scintillation counting.
The concentrations in the Receiver compartment (normalised against the initial concentration in the Donor compartment) are plotted against those of the flux marker ^14C-urea to account for small differences in thickness of the MCLs. The fitted diffusion coefficients for TPZ (n=12) and SR 4317 (n=2) are: […] cm^2 sec^−1, respectively.
The inventors have also investigated the extravascular transport properties (tissue diffusion characteristics) of SR 4317 to assess whether it can diffuse well enough to reach hypoxic cells in tumours efficiently. This study used the multicellular layer (MCL) assay (Hicks et al., Int. J. Radiat. Oncol., Biol., Phys., 1998, 42, 641; Hicks et al., J. Pharmacol. Exper. Ther., 2001, 297, 1088), developed in this laboratory.

[7] = tested on: HT29 human colon carcinoma cells; assay: Cytotoxicity (plating efficiency) in stirred single cell suspensions of HT29 cells, anoxic or aerobic; conditions: for Potentiation of the aerobic cytotoxicity of TPZ: HT29 cells, gas phase 5% CO2 in air
Source text: Cultures were maintained at <10 ppm O2 under a continuously-flowing stream of 5% CO2 in nitrogen and were sampled at intervals to determine plating efficiency.
Experimental conditions were as for FIG. 2, except that the gas phase was 5% CO2 in air. Values are means and error bars are ranges for duplicate cultures.
Drug exposure time was 1 hr. Error bars represent the range for duplicate determinations.

[8] = TPZ 30 μM, anoxic HT29 cells 5×10^5/ml, drug exposure 1 hr

## Nc1nc2ccccc2[n+]([O-])n1 [Compound 3, 1,2,4-Benzotriazin-3-amine 1-oxide]
HT29 cells [1]; conc of potentiator 0.5 mM
  TPR (TPZ potentiation ratio) = TPZ IC50 without potentiator/TPZ IC50 with potentiator: 2.0
[2]
  solubility: 800 µM (≈ 130 µg/mL)
Solubility of SR 4317; aqueous solution, read-out: Aqueous solubility
  solubility: ~800 µM (≈ 130 µg/mL)
Solubility of SR 4317; as stated for the HT29 cell suspension experiment (FIG. 1), read-out: Solubility limit
  solubility: ~1000 µM (≈ 162 µg/mL)
HT29 cells [3]
  Relative potency for radiosensitization of hypoxic HT29 cells: misonidazole>metronidazole=SR4317
[4]; SR 4317 1 mmol/kg added to TPZ 0.133 mmol/kg after 20 Gy, p<0.01 by one way ANOVA
  Activity of radiation + TPZ + SR 4317 compared with radiation alone: greater than radiation alone
[4]; SR 4317 1 mmol/kg, TPZ 0.133 mmol/kg, 20 Gy, p <0.05
  Difference between radiation+TPZ and radiation+TPZ+SR 4317: significant
[5]
  IC50: > 500 µM
[6]; after intraperitoneal co-administration of TPZ + SR 4317 (750 μmol/kg), mice
  Maximum SR 4317 concentration in plasma: ~200 µM
[6]; general statement
  Plasma concentrations in mice: relatively low
[6]; over the first two hours after co-administration of TPZ and SR 4317, mice
  Clearance from plasma: slow clearance
HT-29 MCLs
  Transport through hypoxic MCLs: faster than for TPZ
[7]; HT29 cells in culture, anoxic (<10 ppm O2), TPZ 30 μM, simultaneous exposure
  Potentiation of the cytotoxicity of TPZ to hypoxic tumour cells: increased quite markedly
[7]; listed as SR 4317
  Potentiation of the aerobic cytotoxicity of TPZ: does not potentiate
[7]; listed as SR4317
  Potentiation of the aerobic cytotoxicity of TPZ: lack of potentiation
[7]; SR 4317 at 100 μM for 1 hr, TPZ 30 μM, anoxic HT29 cells
  Potentiation of TPZ cytotoxicity: significant potentiation
[7]; [8]
  Relative dose potency for potentiation of the hypoxic cytotoxicity of TPZ: SR 4317>metronidazole=misonidazole
[7]; anoxic HT29 suspension, 5×10^5 cells/ml, up to its solubility limit (ca 1 mM)
  Toxicity of SR4317 alone: non-toxic

## COc1nc2ccccc2[n+]([O-])n1 [Compound 71, 3-Methoxy-1,2,4-benzotriazine 1-oxide]
HT29 cells [1]; conc of potentiator 0.3 mM
  TPR (TPZ potentiation ratio) = TPZ IC50 without potentiator/TPZ IC50 with potentiator: 3.3
[2]
  solubility: 300 µM (≈ 53.1 µg/mL)
[5]
  IC50: > 300 µM

## CNCCNc1nc2ccccc2[n+]([O-])n1 [Compound 130, N^1-Methyl-#f-(1-oxido-1,2,4-benzotriazin-3-yl)-1,2-ethanediamine]
HT29 cells [1]; conc of potentiator 1.0 mM
  TPR (TPZ potentiation ratio) = TPZ IC50 without potentiator/TPZ IC50 with potentiator: 6.1
[2]
  solubility: 3000 µM (≈ 658 µg/mL)
[5]
  IC50: 2300 µM

## Nc1n[n+]([O-])c2ccccc2[n+]1[O-] [TPZ, tirapazamine, reference compound]
HT29 cells [1]; Homo sapiens, HT-29, mean ± sem, n = 4, read-out: IC50 for TPZ alone
  IC50: 6.8 µM
[4]; TPZ alone 0.133 mmol/kg i.p. 5 minutes after whole body radiation (20 Gy), HT29 xenografts, clonogenic survivors at 18 hr
  Killing of the (hypoxic) cells surviving radiation: did not result in statistically significant killing

## Cc1ncc([N+](=O)[O-])n1CCO [metronidazole, reference compound]
HT29 cells [3]
  Relative potency for radiosensitization of hypoxic HT29 cells: misonidazole>metronidazole=SR4317
[7]
  Relative dose potency for potentiation of the hypoxic cytotoxicity of TPZ: lower dose potency than SR 4317

## COCC(O)Cn1ccnc1[N+](=O)[O-] (stereo not drawn) [misonidazole, reference compound]
HT29 cells [3]
  Relative potency for radiosensitization of hypoxic HT29 cells: misonidazole>metronidazole=SR4317
[7]; [8]
  Relative dose potency for potentiation of the hypoxic cytotoxicity of TPZ: lower dose potency than SR 4317
